Source: patent publication US8450479B2, “3-substituted-4-oxo-3,4-dihydro-imidazo[5,1-d][1,2,3,5-tetrazine-8-carboxylic acid amides and their use” (Pharminox Limited, priority 2007, dated 2013)
“And” between values parts separate entries of the source, which are not always exact repeats. Equal values may be shown once. Read-outs that look alike come from different tables or passages of the source.

Assays:
Type in all cases: cell-based
[1] = tested on: Breast MCF-7 (MMR proficient); test: MTT assay for 7-day toxicity assay; details: Homo sapiens, MCF7, 168 h; Breast MCF-7 (MMR proficient); 7-day MTT; single determinations; read-out: GI50
Description: (§1) The cell culture techniques were carried out in a Class II microbiological safety cabinet which was swabbed with 70% IMS in distilled water before each use. Glioma cells were routinely cultured in Costar tissue culture flasks in RPMI 1640 liquid medium (containing 0.3 g/L L-glutamine and 2 g/L sodium bicarbonate) supplemented with 10% heat inactivated FBS (55-59° C.) for 1 hour to denature complement proteins which would otherwise evoke a cellular immune response resulting in cell lysis, 1% non-essential amino acids, 50 μg/mL gentamicin and 400 μg/mL G418 (vector selected reagent). Colorectal and melanoma cells were maintained in RPMI 1640 supplemented with 10% FBS. MRC-5 cells were cultured in EMEM. Cells were grown in a humidified incubator containing 5% CO2 at 37° C. Cells were sub-cultured when growth exceeded approximately 80% confluence, normally twice weekly. The medium was aspirated from the flask and approximately 0.8 mL trypsin-EDTA 1× solution added. The cells were re-incubated at 37° C. until they visibly detached from the flask. The cell suspension was then re-suspended in 5 mL medium and 0.5-1 mL of the cell suspension was transferred to a new flask (25 cm^2) with 7 mL culture medium. The cells were further incubated at 37° C. incubator. Cells were disposed after passage nearly 30 times in order to minimize phenotypic drift. New batches of cells were taken from liquid nitrogen storage by thawing rapidly (37° C. water bath) and re-suspension in a 25 cm^2 flask with 10 mL of culture medium. Two passages were allowed to resume normal growth. For long-term maintenance, viable cells at 60-80% confluence were detached by minimum amount of trypsin/EDTA and re-suspended in sterile filtered freezing medium (95% FBS, 5% DMSO), transferred to sterile cryogenic vials, and frozen overnight at −20° C. followed by −80° C. for 1-2 days and stored in liquid nitrogen for long term storage.
(§2) Most test compounds, including temozolomide, were prepared as stock solution (100 mM) in DMSO and stored at −20° C. for not more than 6 months.
(§3) This assay was first described in Mosmann, T., 1983, “Rapid colorimetric assay for cellular growth and survival: Application to proliferation and cytotoxicity assays”, Journal of Immunological Methods, Vol. 65, Nos. 1-2, pp. 55-63.
(§4) Glioma cell lines, SNB19 and U373, both MGMT transfected (i.e., SNB19M and U373M) and vector controls (i.e., SNB19V and U373V); colorectal carcinoma cell lines, HCT116, HT29, and DLD1; melanoma cell line, SKMEL-28; breast cell line, MCF-7; and normal human fetal lung fibroblast cell line, MRC-5; were harvested at 60-80% confluence—during the logarithmic phase of growth.
(§5) Following harvesting, cells in suspension were gently syringed through a 23 gauge needle to obtain a near-single cell suspension. The desired cell seeding densities were used and added into 96-well plates in 180 μL culture medium if only one test compound was to be added, or 160 μL if two test compounds were to be added in combination, which were allowed to attach at 37° C. (5% CO2) overnight. For the 7 day assay, the cell seeding density for different cell lines was as follows: SNB19V, SNB19M: 650 cells/well; U373V, U373M: 650 cells/well; SNB19VR, U373VR: 650 cells/well; HCT116, DLD-1, SKMEL-28, MRC-5, MCF-7: 400 cells/well.
(§6) The two peripheral lanes were used as blank wells (cell free) and filled with 200 μL of medium in order to minimise medium evaporation from the plate. A separate time zero (T0) plate was set up alongside other plates. Serial dilutions in tissue culture medium of a 100 mM stock of test compound in DMSO were prepared immediately before each assay to ten times the final concentrations required, and then 20 μL was added to each well (200 μL total media per well) to achieve final concentrations of 0.5 μM, 1 μM, 5 μM, 10 μM, 50 μM, 100 μM, 500 μM, and 1000 μM. A minimum of four wells received the same test compound concentration. […]

[2] = tested on: Colon HT29 (MMR proficient); test: MTT assay for 7-day toxicity assay; details: Homo sapiens, HT-29, 168 h, Colon HT29 (MMR proficient); 7-day MTT; single determinations; read-out: GI50
Description: as §1, §2, §3, §4, §5, §6

[3] = tested on: Melanoma SKMEL-28 (MMR proficient); test: MTT assay for 7-day toxicity assay; details: Homo sapiens, SK-MEL-28, 168 h, Melanoma SKMEL-28 (MMR proficient); 7-day MTT; single determinations; read-out: GI50
Description: as §1, §2, §3, §4, §5, §6

[4] = tested on: Colon HCT116 (MMR mutated); test: MTT assay for 7-day toxicity assay; details: Colon HCT116 (MMR mutated), 7-day MTT, single determinations, read-out: GI50
Description: as §1, §2, §3, §4, §5, §6

[5] = tested on: Glioma SNB19VR (MGMT−) (TMZ resistant); test: MTT assay for 7-day toxicity assay; details: 168 h, Glioma SNB19VR (MGMT−, TMZ resistant); 7-day MTT; single determinations; read-out: GI50
Description: as §1, §2, §3, §4, §5, §6

[6] = tested on: Normal Human Fetal Lung Fibroblast MRC-5; test: MTT assay for 7-day toxicity assay; details: Homo sapiens, MRC5, 168 h, Normal Human Fetal Lung Fibroblast MRC-5; 7-day MTT; single determinations; read-out: GI50
Description: as §1, §2, §3, §4, §5, §6

[7] = tested on: Glioma U373VR (MGMT low) (TMZ resistant); test: MTT assay for 7-day toxicity assay; details: 168 h, Glioma U373VR (MGMT low, TMZ resistant); 7-day MTT; single determinations; read-out: GI50
Description: as §1, §2, §3, §4, §5, §6

Glioma U373V (MGMT low) = test: MTT assay for 7-day toxicity assay; details: for GI50: Glioma U373V (MGMT low), read-out: GI50
Procedure, shortened: (§7)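 MGMT-transfected or vector-control glioma cells were seeded at 650 cells/well, attached overnight, and exposed for 7 days at 37 °C to compound at final 0.5–1000 μM. Viability was read by MTT (0.4 mg/mL, 4 h) formazan absorbance, with a day-0 plate included.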

Glioma U373M (MGMT+) = test: MTT assay for 7-day toxicity assay; details: Glioma U373M (MGMT+), read-out: GI50
Procedure, shortened: as §7

Glioma SNB19V (MGMT−) = test: MTT assay for 7-day toxicity assay; details: Glioma SNB19V (MGMT−), read-out: GI50
Procedure, shortened: as §7

Glioma SNB19M (MGMT+) = test: MTT assay for 7-day toxicity assay; details: Glioma SNB19M (MGMT+), read-out: GI50
Procedure, shortened: as §7

[8] = tested on: MGMT+ lines SNB 19M and U373M; test: MTT assay, MGMT+ glioma lines
Text: as §3, §4, §5
The two peripheral lanes were used as blank wells (cell free) and filled with 200 μL of medium in order to minimise medium evaporation from the plate. A separate time zero (T0) plate was set up alongside other plates. […]
After incubation at 37° C., 5% CO2 for 7 days (or immediately for the day 0 plate), cell viability was quantified using the MTT assay. […]
The intensity of absorbance is directly proportional to cell viability. A linear relationship exists between cell number and the amount of formazan and so the mean absorbance determined for each well of the same concentration can be used as a quantitative measure of viable cells compared to the controls. […]

[9] = tested on: glioma MGMT− and MGMT+ cell lines; test: MTT assay, glioma lines as a whole; details: glioma MGMT− and MGMT+ cell lines
Text: as §3, §4, §5
(§8) The two peripheral lanes were used as blank wells (cell free) and filled with 200 μL of medium in order to minimise medium evaporation from the plate. A separate time zero (T0) plate was set up alongside other plates. Serial dilutions in tissue culture medium of a 100 mM stock of test compound in DMSO were prepared immediately before each assay to ten times the final concentrations required, and then 20 μL was added to each well (200 μL total media per well) to achieve final concentrations of 0.5 μM, 1 μM, 5 μM, 10 μM, 50 μM, 100 μM, 500 μM, and 1000 μM. A minimum of four wells received the same test compound concentration. To control wells, including those in the T0 plate, 20 μL of medium was added. Previous assays had been carried out to verify that cell viability was not affected by the amount of DMSO added into the test compound-treated wells. A separate plate treated in the same way, but free of test compound, was used as a measure of cell viability at the time of drug addition (day 0).
(§9) After incubation at 37° C., 5% CO2 for 7 days (or immediately for the day 0 plate), cell viability was quantified using the MTT assay. 50 μL of sterile filtered MIT (3-(4,5-dimethylthiazol-2-yl)-2,5-diphenyltetrazolium bromide) (2 mg/mL in phosphate buffered saline) were added to each well (final concentration 0.4 mg/mL) and the plates were re-incubated for 4 hours to allow metabolic conversion of MTT by dehydrogenases in viable cells to insoluble formazan crystals. The medium and any unconverted MTT was aspirated, 150 μL of DMSO was added to each well, and the plates were shaken on a plate shaker (Stuart Scientific 503) to ensure complete formazan solubilisation.
(§10) The intensity of absorbance is directly proportional to cell viability. A linear relationship exists between cell number and the amount of formazan and so the mean absorbance determined for each well of the same concentration can be used as a quantitative measure of viable cells compared to the controls. A graph of absorbance against drug concentration was plotted and the test compound concentration (GI50) causing 50% inhibition of control cell growth (absorbance increase from day 0) was calculated by interpolation.

[10] = tested on: range of other cell lines (e.g., colon, melanoma); test: MTT assay, other cell lines; details: other lines (e.g., colon, melanoma)
Text: as §3, §4, §5, §8, §9, §10

[11] = 168 h, 7-day MTT, single determinations
[12] = 7-day MTT, single determinations

Structure (SMILES) | GI50 (Glioma U373V (MGMT low); [11]) | GI50 (Glioma U373V (MGMT low); [12]) | GI50 (Glioma U373M (MGMT+); [11]) | GI50 (Glioma U373M (MGMT+); [12]) | GI50 (Glioma SNB19V (MGMT−); [11]) | GI50 (Glioma SNB19V (MGMT−); [12]) | activity compared with TMZ, in words [8] | activity in words [9] | GI50 (Glioma SNB19M (MGMT+)) | other results
COc1cccc(Cn2nnc3c(C(N)=O)ncn3c2=O)c1 [AA-003, 3-(3-Methoxybenzyl)-4-oxo-3,4-dihydroimidazo[5,1-d][1,2,3, 5]tetrazine-8-carboxamide] | – | – | – | – | – | – | – | – | – | GI50 [1]: 316 µM; GI50 [2]: 345 µM; GI50 [3]: 422 µM; GI50 [4]: 280 µM; GI50 ([4]; Homo sapiens, HCT-116, 168 h): 309 µM
CC[C@@H](c1ccccc1)n1nnc2c(C(N)=O)ncn2c1=O [BB-004, (S)-3-(-1-Phenylpropyl)-8-carbamoylimidazotetrazin-4-one] | 84.3 µM | 72.8 µM | 63.1 µM | 99.4 µM | 52.4 µM | 65.8 µM | – | – | – | GI50 [5]: 29.1 µM; GI50 [6]: 189 µM; GI50 [7]: 35.8 µM; GI50 (Glioma SNB19M (MGMT+); [11]): 48.4 µM; GI50 (Glioma SNB19M (MGMT+); [12]): 60 µM
CSCn1nnc2c(C(N)=O)ncn2c1=O [KK-001, 3-(Methylthio)methyl-8-carbamoylimidazotetrazin-4-one] | 45 µM | 73.4 µM | 59 µM | 54 µM | 118 µM | 96.5 µM | more active than TMZ | – | – | –
COC(=O)Cn1nnc2c(C(N)=O)ncn2c1=O [LL-003, Methyl 2-(8-carbamoyl-4-oxoimidazo[5,1-d][1,2,3,5]tetrazin-3(4H)-yl)acetate] | 9.6 µM | 11.6 µM | 25.4 µM | 33.7 µM | 21.3 µM | 29.7 µM | – | surprising efficacy | – | GI50 (Glioma SNB19M (MGMT+); [11]): 34.8 µM; GI50 (Glioma SNB19M (MGMT+); [12]): 33.5 µM
CS(=O)(=O)CCn1nnc2c(C(N)=O)ncn2c1=O [UU-001, 3-(2-Methanesulfonyl-ethyl)-4-oxo-3,4-dihydro-imidazo[5,1-d][1,2,3,5]tetrazine-8-carboxylic acid amide] | – | – | – | – | – | – | – | surprising efficacy | – | activity in words [10]: surprising efficacy; GI50 (Glioma SNB19V (MGMT−)): 92.4 µM and 154 µM
CS(=O)(=O)Cn1nnc2c(C(N)=O)ncn2c1=O [UU-002, 3-Methanesulfonylmethyl-4-oxo-3,4-dihydro-imidazo[5,1-d][1,2,3,5]tetrazine-8-carboxylic acid amide] | – | – | – | – | – | – | – | surprising efficacy | 14.5 µM and 13.7 µM and 26.6 µM | activity in words [10]: surprising efficacy
NC(=O)c1ncn2c(=O)n(CNC(=O)OCC3c4ccccc4-c4ccccc43)nnc12 [WW-001, (8-Carbamoyl-4-oxo-imidazo[5,1-d][1,2,3,5]tetrazin-3-ylmethyl)-carbamic acid 9H-fluoren-9-ylmethyl ester] | – | – | – | – | – | – | more active than TMZ | – | 71.2 µM and 56 µM | GI50 (Glioma U373V (MGMT low)): 35.8 µM and 60.1 µM; GI50 (Glioma U373M (MGMT+)): 50 µM and 62.5 µM; GI50 (Glioma SNB19V (MGMT−)): 64.8 µM and 67.8 µM
CCC(Cn1nnc2c(C(N)=O)ncn2c1=O)=NOC [XX-001, 3-(2-Methoxyimino-butyl)-4-oxo-3,4-dihydro-imidazo[5,1-d][1,2,3,5]tetrazine-8-carboxylic acid amide] | – | – | – | – | – | – | more active than TMZ | – | 47.2 µM and 47.9 µM | GI50 (Glioma U373V (MGMT low)): 18.5 µM and 10.6 µM; activity compared with TMZ, in words (Glioma U373V (MGMT low); MGMT− glioma cell line U373V): enhanced activity
